Assay results taken from patent US9000188B2, “Monocyclic cyanoenones and methods of use thereof” (Trustees of Dartmouth College, priority 2008, dated 2015).
“Also recorded” adds a separate entry of the source.

Columns and labels:
[1] = test system: IFNγ-induced NO production in RAW cells; assay: iNOS assay: inhibition of NO production in RAW cells stimulated by interferon-γ; format: cell-based; details: for IC50: Suppression of IFNγ-induced NO production, 24 h, Griess reaction, average of two experiments, read-out: RAW (10 ng/ml IFNγ) IC50
Method: (§1) Compounds of the present disclosure have been tested for inhibition of nitric oxide (NO) production in RAW cells stimulated by interferon-γ (iNOS assay) and induction of NAD(P)H-quinone oxidoreductase in Hepa1c1c7 cells (NQO1 assay), both assay systems we have previously employed. At the same time, CDDO and TBE-31 were tested as a positive controls in the same assays. […] The potency in the iNOS assay is more than CDDO (pentacycle), whose methyl ester is currently evaluated in Phase II clinical trials as an anti-inflammatory drug. Also the potency correlates to their reactivity as Michael acceptors based on the above-summarized UV studies.
For the iNOS assay, RAW cells were treated with various concentrations of compounds and interferon-γ (10 ng/mL) for 24 h. Supernatants were analyzed for nitric oxide (NO) by the Griess reaction. IC50 values are an average of two separate experiments.

[2] = test system: IFNγ-induced NO production in RAW cells; details: RAW cells stimulated by interferon-γ; cited from earlier work
[3] = test system: aflatoxin-induced liver cancer; details: rats, orally active; cited from earlier work
[4] = test system: NAD(P)H-quinone oxidoreductase in Hepa1c1c7 cells; assay: NQO1 assay: induction of NAD(P)H-quinone oxidoreductase in Hepa1c1c7 cells; format: cell-based
Method: Novel monocyclic cyano enones (MCEs) were synthesized and their Michael reactivity and biological activity were tested in order to identify useful fragments for drug discovery. […] MCE-1 gives reversible and selective Michael adducts with thiol nucleophiles.
as §1

[5] = target: Keap1 (Mus musculus, UniProt Q9Z2X8); assay: UV studies with Keap1; details: thiol-rich protein
From the text: Keap1 is an electrophile sensor in the cellular Keap1-Nrf2-antioxidant response elements (ARE) phase II response pathway that regulates the transcription of genes for cytoprotective enzymes such as HO-1 and NQO1.

Chain of Keap1 (Q9Z2X8 whole entry): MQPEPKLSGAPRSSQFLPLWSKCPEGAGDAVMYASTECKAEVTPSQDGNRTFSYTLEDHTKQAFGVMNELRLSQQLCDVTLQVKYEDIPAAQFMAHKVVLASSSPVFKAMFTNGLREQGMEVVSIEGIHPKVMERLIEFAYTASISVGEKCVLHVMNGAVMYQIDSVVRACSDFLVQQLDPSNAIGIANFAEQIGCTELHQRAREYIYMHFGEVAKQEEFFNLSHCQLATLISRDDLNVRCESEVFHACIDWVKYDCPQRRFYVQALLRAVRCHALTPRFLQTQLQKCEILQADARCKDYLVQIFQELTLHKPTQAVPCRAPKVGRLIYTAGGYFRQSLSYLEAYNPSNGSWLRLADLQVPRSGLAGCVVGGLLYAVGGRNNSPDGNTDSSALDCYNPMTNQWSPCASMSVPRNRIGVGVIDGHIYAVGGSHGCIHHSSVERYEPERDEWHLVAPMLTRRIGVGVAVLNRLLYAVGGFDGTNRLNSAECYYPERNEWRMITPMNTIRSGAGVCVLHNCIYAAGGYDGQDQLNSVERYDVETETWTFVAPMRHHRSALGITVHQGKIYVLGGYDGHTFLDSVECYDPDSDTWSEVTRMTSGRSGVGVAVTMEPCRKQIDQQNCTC

Row | SMILES | IC50 [1] | potency in the NQO1 assay (in words) [4] | other results
1 | C=CC1(C)C=CC(=O)C(C#N)=C1 (stereo not shown) [MCE-15, 3-methyl-6-oxo-3-vinyl-cyclohexa-1,4-dienecarbonitrile] | 300 nM | – | –
2 | C#CC12C=C(C#N)C(=O)C=C1[C@@]1(C)C=C(C#N)C(=O)C(C)(C)[C@@H]1CC2 (stereo partly shown) [TBE-31] | 1 nM | – | inhibition of NO production (iNOS assay), literature [2]: low nanomolecular concentrations; potency against aflatoxin-induced liver cancer [3]: exceptionally potent
3 | CC1(C)CC[C@]2(C(=O)O)CC[C@]3(C)[C@H](C(=O)C=C4[C@@]5(C)C=C(C#N)C(=O)C(C)(C)[C@@H]5CC[C@]43C)[C@@H]2C1 [CDDO, 2-cyano-3,12-diooxooleana-1,9(11)-dien-28-oic acid, reference compound] | 20 nM | – | –
4 | CC1(C)C=CC(=O)C(C#N)=C1 [MCE-2, reference compound] | 380 nM | – | –
5 | C#C[C@]12C=C(C#N)C(=O)C=C1[C@@]1(C)CCC(=O)C(C)(C)[C@@H]1CC2 [MCE-7] | > 300 nM | less potent than MCE-1 | activity in the iNOS assay ([1]; at a concentration of 300 nM): inactive
6 | C#CC1(C)C=CC(=O)C(C#N)=C1 (stereo not shown) [MCE-1, 3-Ethynyl-3-methyl-6-oxocyclohexa-1,4-dienecarbonitrile] | 8 nM | highly potent; also recorded: highest potency amongst MCEs | potency in the iNOS assay (in words) ([1]; RAW cells stimulated by interferon-γ): highly potent; also recorded: higher than CDDO; also recorded: highest potency amongst MCEs; reactivity with Keap1 (UV) [5]: highest reactivity
